Data: patent US11541027B2 (DelMar Pharmaceuticals, Inc., priority 2014, dated 2023)
“Also recorded” adds a separate entry of the source.

Tested on: A549 (TKI-sensitive) human lung adenocarcinoma xenograft tumors
Assay: A549 NSCLC xenograft tumor model in female Rag2 mice
Conditions: for MTV at Day 68 / Median survival / TCR at Day 68 / TGD / TGI (%): W, F × 3; for MTV at Day 68 / Median survival / TCR at Day 68 / TGD / TGI (%) / number of animals remaining on study on day 70 / day on which a mean tumor volume of 200 mm^3 was observed / day on which a mean tumor volume of 400 mm^3 was reached / doubling time: A549 model; for TCR at Day 68: tumor control ratio; for TGD: tumor growth delay vs untreated control, doubling time 200 to 400 mm^3; for TGI (%): tumor growth inhibition; for day on which a mean tumor volume of 200 mm^3 was observed / day on which a mean tumor volume of 400 mm^3 was reached: days post-inoculation; for doubling time: mean tumor volume 200 to 400 mm^3
Protocol: Rag2 mice bearing subcutaneous human lung adenocarcinoma xenograft tumors of either TKI-resistant (H1975) or TKI-sensitive (A549) origin were treated.
Two human NSCLC cell lines, A549 (TKI-sensitive) and H1975 (TKI-resistant), were used as xenograft tumor models in female Rag2 mice. The mice were 6 to 8 weeks of age and weighed 18-23 grams. 10 mice were used per group.
Cisplatin was used in normal saline at a dose of 5 mg/kg. Administration was intravenous.
Administration was intraperitoneal.
Treatment was initiated at a tumor volume of 100 mm^3 to 150 mm^3.
The cells were started from a frozen vial of lab stock that were frozen down from the ATCC original vial and kept in liquid nitrogen. Cell cultures with a passage number of 3 to 10 and a confluence of 80%-90% were used. […] Cells were subcultured once weekly with a split ratio 1:3 to 1:8 and expanded.
For cell preparation and harvesting for subcutaneous (s.c.) inoculation, the cells were rinsed briefly once with Hanks Balanced Salt Solution without calcium or magnesium. […] The cells were allowed to sit at 37° C. for a few minutes. The cells were observed under an inverted microscope until the cell layer was dispersed, fresh medium was added, 50 μL of cell suspension was taken and mixed with trypan blue (1:1), and the cells were counted and cell viability assessed by using Cellometer Auto T4. The cells were centrifuged at 200×g for 7 minutes and the supernatant was aspirated. The cells were resuspended in growth medium to obtain a concentration of 100×10^6 cells/mL. For inoculation, 5×10^6 cells were used in an injection volume of 50 μL per mouse in 1:1 Matrigel.
On day 0, tumor cells were implanted subcutaneously into mice in a volume of 50 μL in Matrigel using a 28-gauge needle; injection of the tumor cells was in the back of the mice. Mice were randomly assigned to groups based on tumor volume.
For administration, 5 mL of 0.9% sodium chloride for injection, USP (saline) was added to yield a DAG solution with a concentration of 8 mg/mL.
Mice were injected with the required volume to administer the prescribed dose (mg/kg) to the animals based on individual mouse weights using a 28-gauge needle. The injection volume was 200 μL for a 20-g mouse. The mice were briefly (less than 30 seconds) restrained during intravenous injections. Dilation of the vein for intravenous injections was achieved by holding the animals under a heat lamp for a period of between 1-2 minutes.
Mice were individually weighed and injected intraperitoneally according to body weight at the specified injection concentration (see Table 1). The injection volume was based on 200 μL per 20-g mouse. The abdominal surface was wiped down with 70% isopropyl alcohol to clean the injection site.
Tumor growth was monitored by measuring tumor dimensions with calipers beginning on the first day of treatment. Tumor length and width measurements were obtained each Monday, Wednesday, and Friday. Tumor volumes were calculated according to the equation L×W^2/2 with the length (in mm) being defined as the longer axis of the tumor. Animals were weighed at the time of tumor measurement. Tumors were allowed to grow to a maximum of 800 mm^3 before termination.
All animals had blood collected by cardiac puncture at termination for CBC (complete blood count) with differentiation.
In particular, signs of ill-health were based on body weight loss, change in appetite, and behavioral signs such as altered gait, lethargy, and gross manifestations of stress.

[1] = group 5, 6 mg/kg i.p., only 3 of 9 scheduled doses

Substance: dianhydrogalactitol
- MTV at Day 68 (1.5 mg/kg i.p. M): 440 mm^3
- Median survival (1.5 mg/kg i.p. M): 73.5 days
- TCR at Day 68 (1.5 mg/kg i.p. M): 0.69
- TGD (1.5 mg/kg i.p. M): 9 days
- TGI (%) (1.5 mg/kg i.p. M): 32%
- MTV at Day 68 (3 mg/kg i.p. M): 303 mm^3
- Median survival (3 mg/kg i.p. M): 82 days
- TCR at Day 68 (3 mg/kg i.p. M): 0.47
- TGD (3 mg/kg i.p. M): 26 days
- TGI (%) (3 mg/kg i.p. M): 55%
- body weight / tolerability of the dosage (6 mg/kg i.p., treatment stopped after 3 doses, A549 tumor-bearing Rag2 mice): significant body weight loss; also recorded: significant weight loss and morbidity
- number of animals remaining on study on day 70 (group 3, 1.5 mg/kg i.p. Monday, Wednesday, Friday for 3 weeks): 7/10
- day on which a mean tumor volume of 200 mm^3 was observed (group 3, 1.5 mg/kg i.p.): 45 days
- day on which a mean tumor volume of 400 mm^3 was reached (group 3, 1.5 mg/kg i.p.): 67 days
- doubling time (group 3, 1.5 mg/kg i.p.): 22
- number of animals remaining on study on day 70 (group 4, 3 mg/kg i.p. Monday, Wednesday, Friday for 3 weeks): 6/10
- day on which a mean tumor volume of 200 mm^3 was observed (group 4, 3 mg/kg i.p.): 42 days
- day on which a mean tumor volume of 400 mm^3 was reached (group 4, 3 mg/kg i.p.): 81 days
- doubling time (group 4, 3 mg/kg i.p.): 39
- number of animals remaining on study on day 70 [1]: 8/10
- day on which a mean tumor volume of 200 mm^3 was observed [1]: 54 days
- hemoglobin (g/L), CBC analysis at termination, versus untreated control (groups 4 or 5 (3 or 6 mg/kg i.p.), A549 tumor-bearing Rag2 mice): Statistical significance (p<0.05)
